Assay results taken from US7001983B1, “Antipathogenic synthetic peptides and compositions comprising them” (priority 1997, dated 2006).
In brackets after ≈: the same amount, converted by molar mass. Several values for one entry are separate records, joined by “and”; a condition that tells them apart may be missing. Equal values may be shown once. Numbered stars: 1 amine (or outer) side, 2 acyl side, 3 side chain; on linkers, the order of the positions; unused ones are H or OH. Square brackets hold non-standard residues; d marks the D form. Peptide text beside a SMILES is read from it. Ethylenediamine = C(CN[*:2])N[*:1]

Assays:
[1] = test system: Escherichia coli D21; type: cell-based; conditions: 100% inhibition of growth after 18–20 h
[2] = test system: human red blood cells (hRBC); assay: Hemolysis of human red blood cells; type: cell-based; conditions: hRBC; for % hemolysis at 50 μM peptide: 30 min at 37° C.
Procedure, shortened: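 Washed fresh erythrocytes at 5% v/v final in PBS pH 7.3 exposed to peptide 30 min at 37° C with agitation. Hemoglobin release read as supernatant absorbance at 540 nm after centrifugation, scaled between PBS (0%) and 1% Triton (100%).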

[3] = test system: Bacillus megaterium Bm11; type: cell-based; conditions: 100% inhibition of growth after 18–20 h
[4] = test system: Acinetobacter calcoaceticus Ac11; type: cell-based; conditions: 100% inhibition of growth after 18–20 h
[5] = test system: Pseudomonas aeruginosa ATCC 27853; conditions: 100% inhibition of growth after 18–20 h
Protocol: (viii) Antibacterial activity of the peptides.
Antibacterial activity of the mixtures was determined as described in Experimental procedures, section (xii).

[6] = test system: Salmonella typhimurium LT2; assay: Antibacterial activity (MIC), growth inhibition in LB medium; type: cell-based; conditions: 100% inhibition of growth after 18–20 h
Protocol: (§1) (viii) Antibacterial activity of the peptides. The antibacterial activity of the diastereomers was examined in sterile 96-well plates (Nunc F96 microtiter plates) in a final volume of 100 μL as follows: Aliquots (50 μl) of a suspension containing bacteria at a concentration of 10^6 Colony-Forming Units (CFU)/ml LB (Lauria broth) medium were added to 50 μL of water or 66% pooled normal human serum in PBS, containing the peptide in 2-fold serial dilutions. Growth inhibition was determined by measuring the absorbance at 492 nm with a Microplate autoreader E1309 (Bio-tek Instruments), following incubation for 18–20 h at 37° C. […] The bacteria used were: Escherichia coli D21, Pseudomonas aeruginosa ATCC 27853, Acinetobacter calcoaceticus Ac11, Salmonella typhimurium LT2, Bacillus megaterium Bm11, Micrococcus Iuteus ATCC 9341, Bacillus subtilis ATCC 6051.

[7] = test system: Bacillus subtilis ATCC 6051; type: cell-based; conditions: 100% inhibition of growth after 18–20 h
[8] = test system: Micrococcus Iuteus ATCC 9341; assay: Antibacterial activity (MIC), growth inhibition in LB medium; type: cell-based, Micrococcus luteus; conditions: 100% inhibition of growth after 18–20 h
Protocol: as §1

[9] = test system: Leishmania mexicana NR strain promastigotes; assay: Anti-Leishmania activity, counting living promastigotes; type: cell-based; conditions: 100% death after 24 h of incubation
Protocol: The melittin-derived diastereomer peptide 20 (see Example 2 above) and the Leu/Lys diastereomer peptide 23 (see Example 3 above) were tested against Leishmania. Promastigotes of the Leishmania mexicana NR strain to be assayed were cultured at 27° C. in RPMI 1640 medium supplemented with 10% fetal bovine serum. Parasite were harvested by centrifugation at 1200×g for 10 min at 4° C. and washed twice with PBS (50 mM sodium phosphate, 150 mM NaCl, pH 7). The washed promastigotes were counted in a hemocytometer and adjusted to 1×10^6 parasites/ml. Aliquotes of this suspension were assayed in a final volume of 100 μl by counting living (motile) cells after 24 h of incubation at 26° C. in the absence or presence of various concentrations of the diastereomers.

| Structure (SMILES) | Minimal Inhibitory Concentration E. coli (D21) [1] [µM] | % hemolysis at 50 μM peptide [2] [%] | Minimal Inhibitory Concentration B. megaterium (Bm11) [3] [µM] | Minimal Inhibitory Concentration A. calcoaceticus (Ac11) [4] | Minimal Inhibitory Concentration P. aeruginosa (ATCC 27853) [5] [µM] | Minimal Inhibitory Concentration S. typhimurium (LT2) [6] [µM] | Minimal Inhibitory Concentration B. subtilis (ATCC 6051) [7] [µM] | Minimal Inhibitory Concentration M. luteus (ATCC 9341) [8] [µM] | hemolytic activity up to the maximum concentration tested ([2]; up to 50 μM) | MIC Leishmania mexicana [9] [µM] |
| --- | --- | --- | --- | --- | --- | --- | --- | --- | --- | --- |
| CC[C@H](C)[C@H](NC(=O)[C@H](CCCCN)NC(=O)[C@H]1CCCN1C(=O)[C@@H](NC(=O)[C@H](CC(C)C)NC(=O)[C@H](C)NC(=O)[C@H](Cc1ccccc1)NC(=O)[C@H](Cc1ccccc1)NC(=O)CNC(=O)[C@H](CCCCN)NC(=O)[C@@H](N)CCCCN)[C@@H](C)CC)C(=O)N[C@H](C(=O)N[C@@H](CO)C(=O)N[C@@H](CO)C(=O)N1CCC[C@H]1C(=O)N[C@@H](CC(C)C)C(=O)N[C@@H](Cc1ccccc1)C(=O)N[C@@H](CCCCN)C(=O)N[C@H](C(=O)N[C@H](CC(C)C)C(=O)N[C@H](CC(C)C)C(=O)N[C@@H](CO)C(=O)N[C@@H](C)C(=O)N[C@H](C(=O)O)C(C)C)[C@@H](C)O)[C@@H](C)CC [Peptide 6, K^1K^2[D]P^7L^18L^19[1-22]-par] | 15 | 0 | 6 | 6 µM | 60 | 120 | – | – | – | – |
| CC[C@H](C)[C@H](NC(=O)[C@H](CCCCN)NC(=O)[C@H]1CCCN1C(=O)[C@@H](NC(=O)[C@H](CC(C)C)NC(=O)[C@H](C)NC(=O)[C@H](Cc1ccccc1)NC(=O)[C@H](Cc1ccccc1)NC(=O)CN)[C@@H](C)CC)C(=O)N[C@H](C(=O)N[C@@H](CO)C(=O)NCCN)[C@@H](C)CC [Peptide 7, [D]P^7-[1-11]-TApar] (H-GFFALI[dP]KIIS-Ethylenediamine; N-terminus assumed) | >120 | 0 | 30 | >120 µM | >120 | >120 | – | – | – | – |
| CC[C@H](C)[C@H](NC(=O)[C@H](CCCCN)NC(=O)[C@@H]1CCCN1C(=O)[C@@H](NC(=O)[C@H](CC(C)C)NC(=O)[C@H](C)NC(=O)[C@H](Cc1ccccc1)NC(=O)[C@H](Cc1ccccc1)NC(=O)CN)[C@@H](C)CC)C(=O)N[C@H](C(=O)N[C@@H](CO)C(=O)N[C@@H](CO)C(=O)N1CCC[C@H]1C(=O)N[C@@H](CC(C)C)C(=O)N[C@@H](Cc1ccccc1)C(=O)N[C@@H](CCCCN)C(=O)N[C@H](C(=O)N[C@@H](CC(C)C)C(=O)N[C@@H](CC(C)C)C(=O)N[C@@H](CO)C(=O)N[C@@H](C)C(=O)N[C@H](C(=O)NCC(=O)N[C@@H](CO)C(=O)N[C@@H](C)C(=O)N[C@@H](CC(C)C)C(=O)N[C@@H](CO)C(=O)N[C@@H](CO)C(=O)N[C@@H](CO)C(=O)NCC(=O)NCC(=O)N[C@@H](CCC(N)=O)C(=O)N[C@@H](CCC(=O)NCCN)C(=O)NCCN)C(C)C)[C@@H](C)O)[C@@H](C)CC [Peptide 8, TApar] | 3 | 100 | 0.8 | 3 µM | 8 | 15 | 1.5 | 5 | – | – |
| CC[C@H](C)[C@H](NC(=O)[C@H](CCCCN)NC(=O)[C@H]1CCCN1C(=O)[C@@H](NC(=O)[C@H](CC(C)C)NC(=O)[C@H](C)NC(=O)[C@H](Cc1ccccc1)NC(=O)[C@H](Cc1ccccc1)NC(=O)CN)[C@@H](C)CC)C(=O)N[C@H](C(=O)N[C@@H](CO)C(=O)N[C@@H](CO)C(=O)N1CCC[C@H]1C(=O)N[C@@H](CC(C)C)C(=O)N[C@@H](Cc1ccccc1)C(=O)N[C@@H](CCCCN)C(=O)N[C@H](C(=O)N[C@@H](CC(C)C)C(=O)N[C@@H](CC(C)C)C(=O)N[C@@H](CO)C(=O)N[C@@H](C)C(=O)N[C@H](C(=O)NCC(=O)N[C@@H](CO)C(=O)N[C@@H](C)C(=O)N[C@@H](CC(C)C)C(=O)N[C@@H](CO)C(=O)N[C@@H](CO)C(=O)N[C@@H](CO)C(=O)NCC(=O)NCC(=O)N[C@@H](CCC(N)=O)C(=O)N[C@@H](CCC(=O)NCCN)C(=O)NCCN)C(C)C)[C@@H](C)O)[C@@H](C)CC [Peptide 12, [D]P^7-TApar] | 10 | 49 | 1.2 | 5 µM | – | – | 2 | 5 | – | – |
| CC[C@H](C)[C@H](NC(=O)[C@H](CCCCN)NC(=O)[C@@H]1CCCN1C(=O)[C@@H](NC(=O)[C@H](CC(C)C)NC(=O)[C@H](C)NC(=O)[C@H](Cc1ccccc1)NC(=O)[C@H](Cc1ccccc1)NC(=O)CN)[C@@H](C)CC)C(=O)N[C@H](C(=O)N[C@@H](CO)C(=O)N[C@@H](CO)C(=O)N1CCC[C@H]1C(=O)N[C@@H](CC(C)C)C(=O)N[C@@H](Cc1ccccc1)C(=O)N[C@@H](CCCCN)C(=O)N[C@H](C(=O)N[C@H](CC(C)C)C(=O)N[C@H](CC(C)C)C(=O)N[C@@H](CO)C(=O)N[C@@H](C)C(=O)N[C@H](C(=O)NCC(=O)N[C@@H](CO)C(=O)N[C@@H](C)C(=O)N[C@@H](CC(C)C)C(=O)N[C@@H](CO)C(=O)N[C@@H](CO)C(=O)N[C@@H](CO)C(=O)NCC(=O)NCC(=O)N[C@@H](CCC(N)=O)C(=O)N[C@@H](CCC(=O)NCCN)C(=O)NCCN)C(C)C)[C@@H](C)O)[C@@H](C)CC [Peptide 14, [D]L^18L^19-TApar] | 3.5 | 100 | 0.6 | 1.5 µM and 2.5 µM | – | – | 1.5 | 2.5 | – | – |
| CC[C@@H](C)[C@@H](NC(=O)[C@H](CC(C)C)NC(=O)[C@H](C)NC(=O)[C@@H]1CCCN1C(=O)[C@H](CC(C)C)NC(=O)CNC(=O)[C@@H](NC(=O)[C@@H](NC(=O)[C@H](CC(C)C)NC(=O)[C@H](NC(=O)[C@H](CCCCN)NC(=O)[C@H](CC(C)C)NC(=O)[C@H](NC(=O)[C@H](C)NC(=O)CNC(=O)[C@@H](NC(=O)CN)[C@@H](C)CC)C(C)C)C(C)C)[C@@H](C)O)[C@@H](C)O)C(=O)N[C@@H](CO)C(=O)N[C@@H](Cc1c[nH]c2ccccc12)C(=O)N[C@H](C(=O)N[C@H](CCCCN)C(=O)N[C@@H](CCCNC(=N)N)C(=O)N[C@@H](CCCCN)C(=O)N[C@@H](CCCNC(=N)N)C(=O)N[C@@H](CCC(N)=O)C(=O)N[C@@H](CCC(N)=O)C(=O)O)[C@@H](C)CC [Peptide 19, [D]-V^5V^8I^17K^21-mel-COOH] | 18 | 0 | 1.2 | 18 µM | – | – | 8 | 50 | practically devoid of hemolytic activity | – |
| CC[C@@H](C)[C@@H](NC(=O)[C@H](CC(C)C)NC(=O)[C@H](C)NC(=O)[C@@H]1CCCN1C(=O)[C@H](CC(C)C)NC(=O)CNC(=O)[C@@H](NC(=O)[C@@H](NC(=O)[C@H](CC(C)C)NC(=O)[C@H](NC(=O)[C@H](CCCCN)NC(=O)[C@H](CC(C)C)NC(=O)[C@H](NC(=O)[C@H](C)NC(=O)CNC(=O)[C@@H](NC(=O)CN)[C@@H](C)CC)C(C)C)C(C)C)[C@@H](C)O)[C@@H](C)O)C(=O)N[C@@H](CO)C(=O)N[C@@H](Cc1c[nH]c2ccccc12)C(=O)N[C@H](C(=O)N[C@H](CCCCN)C(=O)N[C@@H](CCCNC(=N)N)C(=O)NCCN)[C@@H](C)CC [Peptide 20, [D]-V^5V^8I^17K^21-[1-22]-TAmel] | 8 | 0 | 0.8 | 7 µM | – | – | – | 29 | – | 32 (≈ 75.2 µg/mL) |
